{"source": "patent US11254651B2", "about": "“Histone methyltransferase inhibitors” (GLOBAL BLOOD THERAPEUTICS, INC., priority 2016, dated 2022)", "system": "HGS tumor model", "experiment": "anti-tumor activity in HGS tumor model", "format": "in vivo", "settings": "animals treated with 20/kg of compound", "description": "[…]"}
{"smiles": "C=CC(=O)N1CCN(CCCn2c(=O)c(-c3c(Cl)c(OC)cc(OC)c3Cl)cc3cnc(NC)nc32)CC1", "note": "[8-(3-(4-acryloylpiperazin-1-yl)propyl)-6-(2,6-dichloro-3,5-dimethoxyphenyl)-2-(methylamino)pyrido[2,3-d]pyrimidin-7(8H)-one]", "values": [{"measurement": "antitumor activity", "result": "significant antitumor activity and induced tumor regression"}, {"measurement": "tumor size", "setting": "day 42 after inoculation", "result": 55, "unit": "mm3"}]}
